Consider 21 substances from patent publication US4931553A, “Platinum-polymer complexes and their use as antitumor agents” (priority 1988, dated 1990).

As a reminder, the Aqueous solubility is how much of the substance goes into solution per volume. As a reminder, the Solubility is how much of the substance goes into solution per volume.

Series [1] is described as follows: Aqueous solubility of polymeric platinum prodrugs. It counts as physicochemical. To be noted: for Aqueous solubility / Appearance: Table I; for Appearance: appearance of the aqueous solution; for Solubility of the complex: temperature not stated; for Solubility at RT: room temperature. An excerpt:
Three polyacrylic acid polymers of weight average molecular weight 2000, 5000, 15,000 were used as ligands for complexation with Pt(DACH)(NO3)2 to determine the effect of molecular weight on the physical properties and antitumor properties of the complexes. […] In addition to polyacrylic acids, polymethacrylic acid of 15,000 weight average molecular weight and isotactic and syndiotactic polymethacrylic acid polymers of about 5000 Mw were used as ligands. The polyacrylates were complexed with Pt(DACH)(NO3)2 in aqueous solution at pH 4-6.

Series [2] in a line: Aqueous solubility of polymeric platinum prodrugs. It counts as physicochemical. The conditions noted are these: Table I; for Appearance: appearance of the aqueous solution.
Another series has as its system L1210 murine tumor. The series is described as follows: L1210 murine tumor model in BDF1 mice (T/C% and cures). The class given is in vivo. How it is done:
Some of the specific compounds of the examples above were tested by NCI against L1210 murine tumor model in BDF1 mice. The tumored mice were injected ip with solutions of compounds on days 1, 5, and 9 after the cell innoculum. The results of the experiments were evaluated on day 30 and are expressed as the quotient of the median survival time in days of test animals divided by median day of death of the untreated control mice, multiplied by 100 (T/C%). Mice with no sign of tumor on day 30 are considered as cured.
T/C = Ratio of test evaluation to control evaluation expressed as
percentage. More precisely, T/C = Median survival time of test animals
× 100 (Median survival time of control).

For series [3], the system named is tumors responsive to cisplatin and/or DACH-Pt and bisplatinum complex therapy. The series is described as follows: Anti-tumor activity (statement for the pyran copolymer complex). To be noted: in vivo.
The test system of a further series is M5 ovarian Carcinoma. The series is described as follows: Inhibition of tumor weight, M5 ovarian Carcinoma implanted subcutaneously. The class given is in vivo, mice. To be noted: day 30. As to the method:
(§1) In addition to the L1210 tumor line, Pt(trans-DACH)carboxyamylose (Pt:Polymer=1:6) was screened against additional murine tumor models. In these experiments, tumor of a known weight was implanted subcutaneously to the mice. The mice were then treated with the compound on day 1, 5, 9 schedule. On day 30, the tumors were reweighed and the results are expressed as percent inhibition of tumor weight.

A further series deals with Lewis Lung. The series is described as follows: Inhibition of tumor weight, Lewis Lung implanted subcutaneously. It counts as in vivo, mice. To be noted: day 30. As to the method:
as §1

Another series relates to CA - 755 Adenocarcinoma. The series is described as follows: Inhibition of tumor weight, CA-755 Adenocarcinoma implanted subcutaneously. The conditions noted are these: day 30. The class given is in vivo, mice. As to the method:
as §1

The test system of series [4] is x5563 Plasma Cell Myeloma. Put plainly: Inhibition of tumor weight, x5563 Plasma Cell Myeloma implanted subcutaneously. It counts as in vivo, mice. The conditions noted are these: day 30. How it is done: as §1
The next series concerns animal tumors. To be noted: in vivo; cited from earlier work.
For another series, the system named is malignancies in humans. The conditions noted are these: in vivo; cited from earlier work.
The conditions of series [5]: cited from earlier work.
Where [6] appears, read: Table 2, 10 mg/kg, ip days 1, 5, 9, day 30.
Setting [7] is: Table 2, 10 mg/kg, ip days 1, 5, 9, no sign of tumor on day 30.
[8] abbreviates: Table 2, 20 mg/kg, ip days 1, 5, 9, day 30.
Where [9] appears, read: Table 2, 20 mg/kg, ip days 1, 5, 9, no sign of tumor on day 30.

With “Pt(trans-DACH)Carboxyamylose (176,000 Mw) [Example 16]”, in series [1], the Aqueous solubility was 725 mg/mL and the Appearance entry is listed as “clear”. The “Solubility of the complex on slight warming” value in series [1] (on slight warming) is recorded as “greater than 25 mg per ml”.
In the case of “Pt(trans-DACH)Carboxy Dextran (11.700 Mw)”, in series [2] (6), the Aqueous solubility amounted to 100 mg/mL and the Appearance entry is listed as “clear”.
Take “Pt(trans DACH)Carboxy amylopectin (176,000 Mw) [Example 17]”: in the series with L1210 murine tumor (setting [6]), the T/C is recorded as 357%. For the same substance, in the series with L1210 murine tumor (setting [7]), the Cures is 3/6. This substance also displayed a T/C in the series with L1210 murine tumor (setting [8]) of 261%. In the series with L1210 murine tumor (setting [9]), the Cures is 1/6. Also, in [1], the Aqueous solubility came out at 725 mg/mL, the Appearance result was “clear” and the “Solubility of the complex” value was “greater than 25 mg per ml”.
“Pt(trans-DACH)Carboxy Amylose (50% degree of Oxidation) [Example 13]”: the “Solubility at 50° C.” value in series [1] came out at 25 mg/mL.
“Pt(trans-DACH)Carboxy Dextran, 11,700 Mw (58% Degree of Oxidation) [Example 12]”: the “Solubility at RT” value in [1] came out at 100 mg/mL.
For “Pt(trans-DACH)Carboxy Dextran (11.700 Mw) [Example 8]”, the “Solubility at 50° C.” value in series [1] amounted to 25 mg/mL. Besides, in series [2] (2), the Aqueous solubility stood at 25 mg/mL and the Appearance result is given as “cloudy”.
For “(trans-DACH) Pyran Copolymer Complex [Example 19]”, in series [3], the “Anti-tumor activity (in words)” value is “exhibits anti-tumor activity”.
Take “Pt(trans-DACH)Carboxy Dextran (47,000 Mw) [Example 10]”: the “Solubility in water at room temperature and up to 50° C. (in words)” value in series [1] (water, room temperature and up to 50° C.) is “insoluble in water at room temperature and up to 50 °C”.
Take “Pt(trans-DACH)Carboxy Amylose (176.000 Mw) [Example 5]”: the “% Inh. of tumor weight” value in the series with M5 ovarian Carcinoma (dose 5, days 1, 5, 9) amounted to 64%; in the series on M5 ovarian Carcinoma (dose 10, days 1, 5, 9), 86%; in the series with M5 ovarian Carcinoma (dose 20, days 1, 5, 9), 99%; in the series with Lewis Lung (dose 1.25, days 1, 5, 9) it was 20%; in the series with Lewis Lung (dose 2.5, days 1, 5, 9), 37%; with Lewis Lung (dose 5, days 1, 5, 9) it was 34%. Further, the “% Inh. of tumor weight” value with CA - 755 Adenocarcinoma (dose 5, days 1, 5, 9) worked out at 69%; in the series on CA - 755 Adenocarcinoma (dose 10, days 1, 5, 9), 81%; with CA - 755 Adenocarcinoma (dose 20, days 1, 5, 9), 94%; in series [4] (dose 5, days 1, 5, 9) it was 100%; in [4] (dose 10, days 1, 5, 9) it was 100%; in series [4] (dose 20, days 1, 5, 9) it was 100%. Besides, the T/C in the series on L1210 murine tumor (setting [6]) is 269%; in the series on L1210 murine tumor (setting [8]), 269%; with L1210 murine tumor (Table 2, 40 mg/kg, ip days 1, 5, 9, day 30) it was 292%. In addition, the Cures is 1/6 in the series on L1210 murine tumor (setting [7]); 2/6 with L1210 murine tumor (setting [9]); 2/6 in the series with L1210 murine tumor (Table 2, 40 mg/kg, ip days 1, 5, 9, no sign of tumor on day 30). The Aqueous solubility in [1] came to 10 mg/mL. Besides, the Appearance result in series [1] is given as “clear”.
With “Pt(trans-DACH)Carboxy Amylopectin (176.000 Mw) [Example 7]”, the T/C in the series with L1210 murine tumor (setting [6]) was 337%; in the series with L1210 murine tumor (setting [8]), 314%; in the series with L1210 murine tumor (Table 3, 10 mg/kg), 337; with L1210 murine tumor (Table 3, 20 mg/kg) it was 314. The Cures in the series on L1210 murine tumor (setting [7]) is recorded as 4/6; in the series with L1210 murine tumor (setting [9]) it was 2/6; in the series with L1210 murine tumor (Table 3, 10 mg/kg), 4/6; in the series on L1210 murine tumor (Table 3, 20 mg/kg), 2/6. Also, in [1], the Aqueous solubility is 25 mg/mL. Further, the Appearance entry in [1] was “clear”.
As to “Pt(trans-DACH)Carboxy Dextran (40,000 Mw) [Example 18]”, in series [1], the Aqueous solubility was 730 mg/mL, the Appearance entry is “clear” and the “Solubility of the complex” value is reported as “greater than 30 mg per ml”.
As for cis-[Pt(NH3)2 Cl2 ] [cisplatin], the “Effectiveness against animal tumors (in words)” value in the series with animal tumors is on record as “effective against several types of animal tumors”. In addition, in the series with malignancies in humans, the “Use in human malignancies (in words)” value was “used successfully in treating certain types of malignancies in humans”. Also, the Water solubility entry in series [5] (in water) is “about 1 mg/ml”. The substance further yielded a T/C with L1210 murine tumor (Table 3, 5 mg/kg) of 175 ± 5.
“Pt(trans-DACH)CO oxyalginic Acid (75.000 Mw) [Example 15]”: the “Solubility in 10% sodium bicarbonate solution” value in series [1] (10% sodium bicarbonate, 40° C.) came out at 25 mg/mL.
For the substance “Pt(trans-DACH)Polyacrylate (5000 Mw) [Example 2]”, in series [1] (water), the “Solubility in water (in words)” value is “very soluble in water”.
As for “Pt(trans-DACH)Carboxy Dextran Sulfate (6,000 Mw) [Example 11]”, the “Solubility at RT” value in series [1] was 50 mg/mL.
Take DACH-Pt(OH2)Cl2 (IV): in series [5] (at most sparingly soluble), the “Solubility of platinum-amine complexes (at most sparingly soluble)” value is below 1 mg/mL.
For the substance “Pt(trans-DACH)polyacrylate (2000 Mw) [Example 1]”, the “Solubility in water (in words)” value in [1] (water) was “very soluble in water”.
With “Pt(trans-DACH)Carboxy Amylopectin (176.000 Mw) [Example 7 (freeze-dried)]”, the “Solubility at 50° C.” value in series [1] was found to be 25 mg/mL.
Still for that read-out and setting: for “Pt(trans-DACH)Carboxy Amylose (4,800 Mw) [Example 6]” the value was 20 mg/mL.
“Pt(trans-DACH)Carboxy Polygalacturonic Acid [Example 14]”: in series [1] (aqueous solution), the “Solubility in aqueous solution (in words)” value is on record as “Insoluble in aqueous solution”.
In the case of “Pt(trans-DACH)Carboxy Dextran (21,200 Mw) [Example 9]”, the “Solubility at RT” value in series [1] came to 100 mg/mL.
